According to patent publication US20160113958A1, “MODULATORS OF ADP-DEPENDENT GLUCOKINASE (ADPGK) AND GLYCEROL-3-PHOSPHATE DEHYDROGENASE (GPD2) FOR THERAPY” (DEUTSCHES KREBSFORSCHUNGSZENTRUM STIFTUNG DES ÖFFENTLICHEN …, priority 2011, published 2016):
Like-named read-outs stand apart in the source and are kept apart here.

What was measured:
GPD2 = GPD2 activity in mitochondrial fractions of T cells; assay type: biochemical, human
Method: (§1) Cells were disrupted using a 27×½″ needle in ice-cold ETC buffer and the homogenates were centrifuged at 600×g, 4° C. for 10 min. For preparation of the “high g” mitochondrial (pellet) as well cytosolic (supernatant) fraction the 600×g supernatant was centrifuged at 11.000×g, 4° C. for 20 min. For preparation of the “mitochondria-enriched” fractions, the 600×g supernatant was centrifuged 10 min, 4° C. at 3,500×g (pellet). Subsequently, for preparation of the “ER-enriched fraction” the 3,500×g supernatant was centrifuged at 11.000×g, 4° C. for 20 min. The mouse heart muscle mitochondria were prepared according to the procedure for “mitochondria-enriched” fraction as described (5).
Glycerol-3-phosphate-dehydrogenase (GPD2) activity was measured as cytochrome c reduction in ETC buffer containing 5 mM glycerol 3-phosphate, 2 mM NaCN, and 60 μM cytochrome c.

ADPGK = target: T1, ADPGK (Homo sapiens, UniProt Q9BRR6); assay: ADP-dependent glucokinase (ADPGK) activity assay; assay type: biochemical; conditions: for ADPGK activity in mitochondria-enriched membrane fractions ("high g" fractions): human T cells or Jurkat T cells, 1 h stimulation
T1 construct: endogenous in cells; host or cells: in vitro expanded human T cells or Jurkat T cells; "high g" mitochondrial or "ER-enriched" fraction
Method: as §1
ADPGK activity was assayed as NADP reduction in ETC buffer containing 1 mM ADP, 1 mM glucose, 0.5 mM NADP, 5 μM diadenosine pentaphosphate, and 0.05 U/ml glucose 6-phosphate dehydrogenase at pH 6.0 and 37° C. or 42° C. Assay was essentially based on the one previously described for the recombinant mouse ADPGK protein (9).

[1] = test system: ETC complexes I, II and III; assay: Steady-state activity of ETC enzymatic complexes in digitonin-permeabilized T cells; assay type: biochemical, human; conditions: T cells pre-treated (20 min) with BIM, TCR triggering
Method: In vitro expanded T cells (at least 0.5×10^8) were snap-frozen in liquid nitrogen and subsequently incubated on ice in ETC buffer (20 mM Tris-HCl pH 7.4, 250 mM sucrose, 50 mM KCl, 5 mM MgCl2) with 0.015% digitonin for 30 min according to Chretien et al. (4) with minor modifications. Afterwards, cells were washed twice with ice-cold ETC buffer and subjected to assays.
Steady-state activity of ETC enzymatic complexes was determined as described (5, 6) using a computer-tunable spectrophotometer (Spectramax Plus Microplate Reader, Molecular Devices; Sunny Vale, Calif., USA) operating in the dual wavelength mode; samples were analyzed in temperature-controlled 96-well plates in a final volume of 300 μL. The addition of standard respiratory chain inhibitors was used to ascertain the specificity of the enzymatic assays. All enzymatic activities were normalized to protein concentration. For stimulated T cells ETC enzyme activities were measured after snap-freezing and digitonin-permeabilization (as described previously). To study electron flow from complex I or complex II to complex III digitonin-permeabilized cells or mitochondrial fractions were incubated with NADH or succinate and the reduction of cytochrome c in the presence of NaCN was measured.

[2] = test system: in vitro expanded peripheral human T cells; assay: Determination of ROS generation (activation-induced oxidative signal, H2DCF-DA, FACS); assay type: cell-based; conditions: for oxidative signal generation (T cell activation-induced mitochondrial ROS) with respiratory chain inhibitors: 15 min pre-treatment, plate-bound anti-CD3 (30 μg/ml) or PMA (10 ng/ml) 1 h (FIG. 9A)
Method: (§2) T cell line Jurkat J16-145 cells, J16 sub-clone (2), were cultured in RPMI 1640 (+L-glutamine), 10% foetal calf serum (FCS). Gaussia luciferase NF-κB reporter J16-145 cells were cultured in IMDM, 10% FCS. Freshly isolated (“resting”) or phytohemagglutinin (PHA)-activated and 6-8 days in vitro expanded (“pre-activated”) peripheral human T cells were cultured at initial concentration of 2×10^6 cells/ml in RPMI 1640 (+L-glutamine), 10% FCS. For pre-activation-induced expansion, “resting” T cells were treated with 1 μg/ml PHA for 16 h, washed and subsequently cultured in the presence of 25 U/ml IL-2 for 6-8 days. These cells are referred to as “T cells” in the text, if not stated differently.
(§3) Cells were stained with H2DCF-DA (5 μM) for 30 min. Next, cells were divided and 1 h stimulated with either plate-bound anti-CD3 antibody (30 μg/ml) or PMA (10 ng/ml). Treatment was terminated by ice-cold PBS and ROS generation was determined by FACS analysis (Canto II, Becton Dickinson). ROS generation was quantified as the increase in mean fluorescence intensity (MFI), calculated according to the following formula: increase in MFI (%)=[(MFIstimulated−MFIunstimulated)/MFIunstimulated]×100 (3).

[3] = test system: mitochondria-associated HK activity; assay: Respiration-coupled hexokinase (HK)-like activity in T cell mitochondria ("high g" fraction); assay type: biochemical, human
Jurkat T cells = assay: Determination of ROS generation (activation-induced oxidative signal, H2DCF-DA, FACS); assay type: cell-based, human; conditions: 30 min pre-incubation with DOG/pyruvate, compared to equimolar glucose (Glc)/pyruvate
Method: as §2
as §3, with “(3). […]” for “(3).”

enolase (ENO) = assay: Enolase (ENO) reverse reaction activity; assay type: biochemical, human
Method: Enolase (ENO) forward reaction was measured as NADH oxidation in ETC buffer containing 1 mM 2-phosphoglycerate, 1 mM ADP, 0.5 mM NADH, 2 U/ml LDH, 2 U/ml PK. The reverse reaction was assayed in ETC buffer containing 1 mM phosphoenolpyruvate, 1 mM ATP, 0.5 mM NADH, 2 U/ml LDH, 2 U/ml PK.

[4] = test system: in vitro expanded human T cells; assay: Ubiquinol/ubiquinone content determination (HPLC); assay type: cell-based; conditions: PMA (10 ng/ml) 1 h, extracts from snap-frozen activated T cells
Method: At least 5×10^7 in vitro expanded human T cells were treated with plate-bound anti-CD3 antibody (30 μg/ml) or PMA (10 ng/ml) for 1 h. Cells were washed, pelleted, snap-frozen in liquid nitrogen and placed on dry ice. Ubiquinol/-on extraction was performed by addition of ice-cold 200 μl hexan: isopropanol (2:1) and subsequent centrifugation (15.000 g) for 5 min at 0° C. Next, 150 μl of the supernatant was immediately injected and separated by RP-HPLC. HPLC separation and identification conditions were based on previously published methods (10, 11). […] Identification was based on UV/VIS-DAD absorption spectra and facilitated by redox response detected with volt-amperometric detector. Quantitation was performed based on UV-VIS chromatograms at wavelengths: 275 nm (ubiquinone) and 289 nm (ubiquinol). Selected qualitative and quantitative results of UV-VIS/DAD analysis were confirmed by HPLC-MS/ESI (Agilent; Santa Clara, Calif., USA).

[5] = test system: in vitro expanded T cells; assay: Oxygen electrode, mitochondrial respiratory rate; assay type: cell-based; conditions: intact human T cells, soluble anti-CD3 antibody or PMA
Method: Mitochondrial respiratory rate was measured according to a previously described protocol (7) using computer-supported high-resolution Oroboros 1 oxygraph system (Paar, Graz, Austria). In vitro expanded T cells (5-10×10^7 cells) were placed in each electrode chamber and activated with soluble anti-CD3 antibody (10 μg/m, cross-linked with GAM, 2 μg/ml) or PMA (10 ng/ml). The experimental set-up was as previously described (8). “Mitochondrial respiratory rate” was calculated by subtracting “Background oxygen consumption rate” (recorded with a reference electrode in a presence of 5 μM oligomycin) from “Total oxygen consumption rate” (as described in (8)).

T cells = assay: Glucose uptake (D-[3-3H] glucose); assay type: cell-based, human; conditions: after stimulation with anti-CD3 antibody or PMA
Method: Upon treatment, cells (1-2×10^7 cells) were washed and suspended in Krebs-Ringer buffer. Subsequently, cells were incubated with 1 μCi/ml D-[3-^3H] glucose for 10 min at 37° C. Afterwards, cells were washed twice with ice-cold Krebs-Ringer buffer and intracellular D-[3-^3H] glucose was detected using a scintillation counter (LS 6500 Liquid Scintillation Counter Beckman Coulter; Brea, Calif., USA).

[6] = test system: in vitro expanded peripheral human T cells; conditions: previous work (ref. 3); cited from earlier work
mitochondrial AK = assay: Adenylate kinase (AK) activity assay; assay type: biochemical; conditions: 5 μM
Method: AK activity was assayed as NADP reduction in ETC buffer containing 1 mM ADP, 1 mM glucose, 0.5 mM NADP, 1 U/mL HK and 0.05 U/ml glucose 6-phosphate dehydrogenase at pH 7.5 and 37° C.

T1 sequence (Q9BRR6 23-497): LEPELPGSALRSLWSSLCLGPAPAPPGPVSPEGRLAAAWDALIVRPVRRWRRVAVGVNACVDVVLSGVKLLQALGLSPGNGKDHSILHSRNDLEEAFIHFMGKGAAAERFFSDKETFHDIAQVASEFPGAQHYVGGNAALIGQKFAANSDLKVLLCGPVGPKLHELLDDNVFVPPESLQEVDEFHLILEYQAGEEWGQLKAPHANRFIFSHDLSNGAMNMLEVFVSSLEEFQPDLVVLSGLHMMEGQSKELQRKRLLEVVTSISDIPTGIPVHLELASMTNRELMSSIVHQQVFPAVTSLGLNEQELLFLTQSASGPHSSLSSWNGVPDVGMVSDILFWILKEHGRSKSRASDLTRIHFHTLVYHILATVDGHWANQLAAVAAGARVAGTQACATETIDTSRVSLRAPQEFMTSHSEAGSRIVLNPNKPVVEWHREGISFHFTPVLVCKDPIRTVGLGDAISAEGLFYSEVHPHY

CN(C)CCCn1cc(C2=C(c3c[nH]c4ccccc34)C(=O)NC2=O)c2ccccc21 [BIM, bis-indolyl-maleimidate I]
TCR-induced GPD2 activation (GPD2; mitochondrial fractions of activated T cells, BIM pre-treatment): significantly blocked
T cell activation-induced enhancement of the ADPGK-like enzymatic activity (ADPGK; "high g" fractions, BIM pre-treatment (20 min)): completely abolished
activation-induced changes of enzymatic activities of complexes I, II and III [1]: significantly blocked
TCR-induced mitochondrial ROS generation ([2]; 20 min pre-incubation, 1 h plate-bound anti-CD3 antibody (30 μg/ml)): inhibitor

N#CC(C#N)=NNc1cccc(Cl)c1 [CCCP]
sensitivity of the enhanced HK-like enzymatic activity ([3]; CCCP (0.125 μM), NaCN (10 mM)): insensitivity

O=CC[C@@H](O)[C@H](O)[C@H](O)CO [DOG, 2-deoxy-glucose]
activation-induced ROS (Jurkat T cells): lower amounts
activation-induced ROS ([2]; expanded human T cells, 30 min pre-incubation with DOG/pyruvate, compared to equimolar glucose (Glc)/pyruvate): lower amounts

[F-].[Na+] [NaF]
reverse ENO activity (enolase (ENO); T cells): blocked

[N-]=[N+]=[N-].[Na+] [NaN3]
oxidative signal generation (T cell activation-induced mitochondrial ROS) with respiratory chain inhibitors [2]: not blocked

CCCCCCCCCCCCCC(=O)O[C@@H]1[C@@H](C)[C@@]2(O)[C@@H](C=C(CO)C[C@]3(O)C(=O)C(C)=C[C@@H]23)[C@@H]2C(C)(C)[C@]12OC(C)=O [PMA, phorbol 12-myristate 13-acetate]
rise in the content of ubiquinol over ubiquinone [4]: 57%
mitochondrial oxygen consumption [5]: significant inhibition
GPD2 activity (GPD2; mitochondria-enriched membrane fractions of pre-activated human T cells, PMA (10 ng/ml) 1 h): moderately up-regulated
ADPGK activity in mitochondria-enriched membrane fractions ("high g" fractions) (ADPGK): Comparable up-regulation
cellular uptake of radioactively labeled glucose (T cells): rapidly rose

O=C(CC(=O)C(F)(F)F)c1cccs1 [TTFA]
oxidative signal generation (T cell activation-induced mitochondrial ROS) with respiratory chain inhibitors [2]: moderate inhibition

CN(C)C(=N)N=C(N)N [metformin]
generation of the oxidative signal [6]: blocked
oxidative signal generation (T cell activation-induced mitochondrial ROS) with respiratory chain inhibitors [2]: inhibition

CO/C(=C/C(N)=O)[C@H](C)[C@H](/C=C/c1csc(-c2csc([C@@H](C)/C=C/C=C/C(C)C)n2)n1)OC [myxothiazol]
oxidative signal generation (T cell activation-induced mitochondrial ROS) with respiratory chain inhibitors [2]: not

CC[C@H]1/C=C/C=C/C[C@@H](C)[C@H](O)[C@@](C)(O)C(=O)[C@@H](C)[C@H](O)[C@@H](C)C(=O)[C@@H](C)[C@H](O)[C@@H](C)/C=C/C(=O)O[C@@H]2[C@H](C)[C@H](CC1)O[C@]1(CC[C@H](C)[C@H](C[C@@H](C)O)O1)[C@H]2C [oligomycin]
oxidative signal generation (T cell activation-induced mitochondrial ROS) with respiratory chain inhibitors [2]: not blocked

C=C(C)[C@H]1Cc2c(ccc3c2O[C@@H]2COc4cc(OC)c(OC)cc4[C@@H]2C3=O)O1 [rotenone]
oxidative signal generation (T cell activation-induced mitochondrial ROS) with respiratory chain inhibitors [2]: inhibition

NaVO3
TCR-induced increase of reverse ENO activity (enolase (ENO)): abolished
reverse ENO activity (enolase (ENO)): reduced the activity but did not block it

anti-CD3 antibody: Monoclonal mouse antibody (OKT3) against human CD3, agonistic, used for TCR triggering
mitochondrial oxygen consumption [5]: significant inhibition
ADPGK activity in mitochondria-enriched membrane fractions ("high g" fractions) (ADPGK): enhanced
cellular uptake of radioactively labeled glucose (T cells): rapidly rose

antimycin
oxidative signal generation (T cell activation-induced mitochondrial ROS) with respiratory chain inhibitors [2]: increased

diadenosine pentaphosphate [Ap5A]
inhibition of TCR-induced HK-like activity ([3]; 5 μM, presence of ADP and succinate): up to 40%
activation-induced rise in HK-like activity ([3]; Ap5A 5 μM): unaffected
inhibition of mitochondrial AK (mitochondrial AK): 80-90%
